The source of these data is patent US20240207300A1, “COMBINATION THERAPIES INCLUDING MYT1 INHIBITORS” (Repare Therapeutics Inc., priority 2021, published 2024).

What is called IC50 is the concentration needed to halve the response being measured.

Molecules are shown by their SMILES.

The target in this assay is recombinant human Myt1 (Homo sapiens (Human), UniProt Q99640). Nature of the assay: Recombinant human Myt1 kinase ADP-Glo enzymatic assay. The class given is biochemical. The conditions noted are these: recombinant human Myt1 18 nM, ATP 10 μM. The protocol: Detection of Myt1 kinase activity utilized a recombinant human Myt1 kinase assay measuring the hydrolysis of ATP using a commercially available ADP-Glo Assay (ADP-Glo™ Kinase Assay from Promega, 10 000 assays, #V9102). […] After this, 5 μL of compounds (diluted in reaction buffer to 0.5% DMSO) was added to the microplate and the plate was spun briefly and incubated at 22° C. for 15 minutes. Ultra-Pure Adenosine Triphosphate (ATP) solution (ADP-Glo kit from Promega) was diluted in reaction buffer and 5 μL was added to the microplate, spun down briefly and incubated for 60 minutes at 30° C. […] After the 60-minute incubation, 15 μL of ADP-Glo reagent was added and the plate was spun briefly and sealed and incubated in the dark for 40 minutes at 22° C. […] Luminescence was read using the Envision (250 ms integration). The IC50 and the % max inhibition were calculated for each inhibitor compound tested.
Chain of recombinant human Myt1 (Q99640 whole entry): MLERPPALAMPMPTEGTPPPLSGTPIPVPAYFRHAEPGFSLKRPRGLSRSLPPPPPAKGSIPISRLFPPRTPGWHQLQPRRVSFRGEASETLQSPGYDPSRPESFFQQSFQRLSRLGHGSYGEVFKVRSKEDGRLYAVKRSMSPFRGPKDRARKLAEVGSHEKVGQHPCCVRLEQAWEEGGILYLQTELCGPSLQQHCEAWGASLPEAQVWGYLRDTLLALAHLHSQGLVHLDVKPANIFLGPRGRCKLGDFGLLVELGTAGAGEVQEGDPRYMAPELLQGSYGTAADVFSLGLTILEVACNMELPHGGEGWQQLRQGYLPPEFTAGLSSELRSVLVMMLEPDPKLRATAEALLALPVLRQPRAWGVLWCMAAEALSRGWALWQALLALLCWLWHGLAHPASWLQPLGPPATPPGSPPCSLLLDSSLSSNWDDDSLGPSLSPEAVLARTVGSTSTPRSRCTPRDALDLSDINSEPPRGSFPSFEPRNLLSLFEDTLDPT
(In ADP-Glo the light output rises with the ADP produced.)
For the molecule `Cc1ccc(O)c(C)c1-n1c(N)c(C(N)=O)c2cc(Br)c(C)nc21` [Compound 187], the half-maximal inhibitory concentration (IC50) is less than 10 nM.

Take `Cc1ccc(O)c(C)c1-n1c(N)c(C(N)=O)c2nc(-c3c[nH]cn3)cnc21` [Compound 65]: the IC50 was less than 10 nM.

Regarding `Cc1ccc(O)c(C)c1-n1c(N)c(C(N)=O)c2cccnc21` [Compound 328], the IC50 was less than 10 nM.

Consider `Cc1ccc(O)c(C)c1-n1c(N)c(C(N)=O)c2cc(S(=O)(=O)C3CC3)cnc21` [Compound 311], for which the IC50 was less than 10 nM.

`Cc1ccc(O)c(C)c1-n1c(N)c(C(N)=O)c2nc(-c3cncs3)cnc21` [Compound 37]: the IC50 was less than 10 nM.
